Test results as given in publication PMC4460250, “Systems Pharmacology Dissecting Holistic Medicine for Treatment of Complex Diseases: An Example Using Cardiocerebrovascular Diseases Treated by TCM” (Evidence-based Complementary and Alternative Medicine : eCAM, 2015).

Columns and labels:
[1] = in vivo
[2] = in vivo; cited from earlier work

Row | SMILES | Class(High: HIA value ≥0.7; Low: HIA value < 0.7) [1] | HIA(Human Intestinal Absorption) [2]
1 | COCCc1ccc(OC[C@H](O)CNC(C)C)cc1 [Metoprolol(R)] | High (key: High: HIA value ≥0.7; Low: HIA value < 0.7) | 0.96
2 | COc1cc2nc(N3CCN(C(=O)[C@H]4CCCO4)CC3)nc(N)c2cc1OC [Terazosin(R)] | High (key: High: HIA value ≥0.7; Low: HIA value < 0.7) | 0.91
3 | C[C@]12CC[C@@H]3c4ccc(OC(=O)N(CCCl)CCCl)cc4CC[C@H]3[C@@H]1CC[C@@H]2O [Estramustine] | High (key: High: HIA value ≥0.7; Low: HIA value < 0.7) | 0.75
4 | C[C@H](c1cc2ccccc2s1)N(O)C(N)=O [Zileuton(R)] | High (key: High: HIA value ≥0.7; Low: HIA value < 0.7) | 1
5 | C[C@H](N[C@@H](CCc1ccccc1)C(=O)O)C(=O)N1CCC[C@H]1C(=O)O [Enalaprilat] | Low (key: High: HIA value ≥0.7; Low: HIA value < 0.7) | 0.25
6 | COc1ccc(Cc2nccc3cc(OC)c(OC)cc23)cc1OC [Papaverine] | High (key: High: HIA value ≥0.7; Low: HIA value < 0.7) | 0.9
7 | CCN1CCC[C@@H]1CNC(=O)c1cc(S(=O)(=O)CC)ccc1OC [Sultopride(R)] | High (key: High: HIA value ≥0.7; Low: HIA value < 0.7) | 0.89
8 | C[C@H]1O[C@H](O[C@H]2[C@H](O)[C@@H](O)[C@@H](O[C@H]3[C@H](O)[C@@H](O)C(O)O[C@@H]3CO)O[C@@H]2CO)[C@H](O)[C@@H](O)[C@@H]1N[C@H]1C=C(CO)[C@@H](O)[C@H](O)[C@H]1O (stereo partly shown) [Acarbose] | Low (key: High: HIA value ≥0.7; Low: HIA value < 0.7) | 0.02
9 | CC(=O)Oc1ccc2c3c1O[C@H]1[C@@H](OC(C)=O)C=C[C@H]4[C@@H](C2)N(C)CC[C@@]341 [Diacetylmorphine] | High (key: High: HIA value ≥0.7; Low: HIA value < 0.7) | 1
10 | CC[C@@H](C(N)=O)N1CCCC1=O [Levetiracetam(S)] | High (key: High: HIA value ≥0.7; Low: HIA value < 0.7) | 1
11 | CN1CCCC1c1cccnc1 (stereo in doubt) [Nicotine(R)] | High (key: High: HIA value ≥0.7; Low: HIA value < 0.7) | 1
12 | COC(=O)C1=C(C)NC(C)=C(C(=O)OCCN(C)Cc2ccccc2)[C@@H]1c1cccc([N+](=O)[O-])c1 [Nicardipine(R)] | High (key: High: HIA value ≥0.7; Low: HIA value < 0.7) | 0.95
13 | C[C@@H](CN(C)C)CN1c2ccccc2Sc2ccccc21 [Trimeprazine(S)] | High (key: High: HIA value ≥0.7; Low: HIA value < 0.7) | 0.8
14 | COc1c(N2CCN[C@@H](C)C2)c(F)cc2c(=O)c(C(=O)O)cn(C3CC3)c12 [Gatifloxacin(S)] | High (key: High: HIA value ≥0.7; Low: HIA value < 0.7) | 0.96
15 | C[C@H](CN1CCOCC1)C(C(=O)N1CCCC1)(c1ccccc1)c1ccccc1 [Dextromoramide] | High (key: High: HIA value ≥0.7; Low: HIA value < 0.7) | 1
16 | C=CCC1(C(C)CCC)C(=O)NC(=O)NC1=O (stereo not shown) [Quinalbarbitone] | High (key: High: HIA value ≥0.7; Low: HIA value < 0.7) | 0.9
17 | CC(C)(C)NC[C@@H](O)c1cc(O)cc(O)c1 [Terbutaline(S)] | Low (key: High: HIA value ≥0.7; Low: HIA value < 0.7) | 0.63
18 | O=C1CN=C(c2ccccc2Cl)c2cc([N+](=O)[O-])ccc2N1 [Clonazepam] | High (key: High: HIA value ≥0.7; Low: HIA value < 0.7) | 0.8
19 | CCC(C(N)=O)N1CCCC1=O (stereo in doubt) [Levetiracetam(R)] | High (key: High: HIA value ≥0.7; Low: HIA value < 0.7) | 1
20 | Cc1cccc(C)c1OC[C@@H](C)N [Mexiletine(R)] | High (key: High: HIA value ≥0.7; Low: HIA value < 0.7) | 0.98
21 | CN1CCN(C(=O)O[C@H]2c3nccnc3C(=O)N2c2ccc(Cl)cn2)CC1 [Zopiclone(S)] | High (key: High: HIA value ≥0.7; Low: HIA value < 0.7) | 0.98

Row | SMILES | Class(High: HIA value ≥0.7; Low: HIA value < 0.7) [1] | HIA(Human Intestinal Absorption) [2]
22 | CC(C)c1cccc(C(C)C)c1O [Propofol] | High (key: High: HIA value ≥0.7; Low: HIA value < 0.7) | 1
23 | C[C@]12CCC(=O)C=C1CC[C@@H]1[C@@H]2[C@@H](O)C[C@@]2(C)[C@H]1CC[C@]2(O)C(=O)CO [Hydrocortisone] | High (key: High: HIA value ≥0.7; Low: HIA value < 0.7) | 0.91
24 | CC(C)(C)NC[C@H](O)COc1ccccc1C1CCCC1 [Penbutolol(S)] | High (key: High: HIA value ≥0.7; Low: HIA value < 0.7) | 1
25 | N=C(N)NC[C@@H]1COc2ccccc2O1 [Guanoxan(R)] | Low (key: High: HIA value ≥0.7; Low: HIA value < 0.7) | 0.5
26 | CCN(CCO)CCC[C@H](C)Nc1ccnc2cc(Cl)ccc12 [Hydroxychloroquine(S)] | High (key: High: HIA value ≥0.7; Low: HIA value < 0.7) | 0.9
27 | NS(=O)(=O)c1cc([C@@]2(O)NC(=O)c3ccccc32)ccc1Cl [Chlorthalidone(S)] | Low (key: High: HIA value ≥0.7; Low: HIA value < 0.7) | 0.65
28 | CCCC[C@H]1C(=O)N(c2ccccc2)N(c2ccc(O)cc2)C1=O [Oxyphenbutazone(S)] | High (key: High: HIA value ≥0.7; Low: HIA value < 0.7) | 1
29 | COCCc1ccc(OC[C@@H](O)CNC(C)C)cc1 [Metoprolol(S)] | High (key: High: HIA value ≥0.7; Low: HIA value < 0.7) | 0.96
30 | COc1c(N2CCN[C@H](C)C2)c(F)cc2c(=O)c(C(=O)O)cn(C3CC3)c12 [Gatifloxacin(R)] | High (key: High: HIA value ≥0.7; Low: HIA value < 0.7) | 0.96
31 | CN1C[C@H](C(=O)N[C@]2(C)O[C@@]3(O)[C@@H]4CCCN4C(=O)[C@H](Cc4ccccc4)N3C2=O)C=C2c3cccc4[nH]cc(c34)C[C@H]21 [Ergotamine] | High (key: High: HIA value ≥0.7; Low: HIA value < 0.7) | 1
32 | O[C@@](CCN1CCCCC1)(c1ccccc1)C1CCCCC1 [Trihexyphenidyl(R)] | High (key: High: HIA value ≥0.7; Low: HIA value < 0.7) | 1
33 | C[C@H](CN(C)C)CN1c2ccccc2CCc2ccccc21 [Trimipramine(R)] | High (key: High: HIA value ≥0.7; Low: HIA value < 0.7) | 0.8
34 | Cc1cccc(C)c1NC(=O)[C@H](C)N [Tocainide(S)] | High (key: High: HIA value ≥0.7; Low: HIA value < 0.7) | 1
35 | NC[C@@H](CC(=O)O)c1ccc(Cl)cc1 [Baclofen(S)] | High (key: High: HIA value ≥0.7; Low: HIA value < 0.7) | 0.95
36 | Cc1nccn1C[C@H]1CCc2c(c3ccccc3n2C)C1=O [Ondansetron(R)] | High (key: High: HIA value ≥0.7; Low: HIA value < 0.7) | 1
37 | CCN1CCCC1CNC(=O)c1c(OC)ccc(Br)c1OC (stereo in doubt) [Remoxipride(R)] | High (key: High: HIA value ≥0.7; Low: HIA value < 0.7) | 1
38 | COc1ccccc1OCCNC[C@@H](O)c1ccc(C)c(S(N)(=O)=O)c1 [Amosulalol(S)] | High (key: High: HIA value ≥0.7; Low: HIA value < 0.7) | 1
39 | C=CCOc1ccccc1OC[C@H](O)CNC(C)C [Oxprenolol(R)] | High (key: High: HIA value ≥0.7; Low: HIA value < 0.7) | 0.95
40 | C[C@@H](CN(C)C)CN1c2ccccc2CCc2ccccc21 [Trimipramine(S)] | High (key: High: HIA value ≥0.7; Low: HIA value < 0.7) | 0.8
41 | CC(=O)Nc1ccc(OC[C@@H](O)CNC(C)C)cc1 [Practolol(S)] | High (key: High: HIA value ≥0.7; Low: HIA value < 0.7) | 0.95
